Assay results taken from US10077436B2, “Beta-glucosidase enzymes for increased biomass saccharification” (Edeniq, Inc., priority 2013, dated 2018).

Molecular target: T1, Aspergillus niger beta-glucosidase, wild type, yEdQ745-BG (CAB75696.1, SEQ ID NO:2) (Aspergillus niger, UniProt Q9P8F4)
T1 construct: strain yEdQ745
T1 sequence (Q9P8F4 20-860): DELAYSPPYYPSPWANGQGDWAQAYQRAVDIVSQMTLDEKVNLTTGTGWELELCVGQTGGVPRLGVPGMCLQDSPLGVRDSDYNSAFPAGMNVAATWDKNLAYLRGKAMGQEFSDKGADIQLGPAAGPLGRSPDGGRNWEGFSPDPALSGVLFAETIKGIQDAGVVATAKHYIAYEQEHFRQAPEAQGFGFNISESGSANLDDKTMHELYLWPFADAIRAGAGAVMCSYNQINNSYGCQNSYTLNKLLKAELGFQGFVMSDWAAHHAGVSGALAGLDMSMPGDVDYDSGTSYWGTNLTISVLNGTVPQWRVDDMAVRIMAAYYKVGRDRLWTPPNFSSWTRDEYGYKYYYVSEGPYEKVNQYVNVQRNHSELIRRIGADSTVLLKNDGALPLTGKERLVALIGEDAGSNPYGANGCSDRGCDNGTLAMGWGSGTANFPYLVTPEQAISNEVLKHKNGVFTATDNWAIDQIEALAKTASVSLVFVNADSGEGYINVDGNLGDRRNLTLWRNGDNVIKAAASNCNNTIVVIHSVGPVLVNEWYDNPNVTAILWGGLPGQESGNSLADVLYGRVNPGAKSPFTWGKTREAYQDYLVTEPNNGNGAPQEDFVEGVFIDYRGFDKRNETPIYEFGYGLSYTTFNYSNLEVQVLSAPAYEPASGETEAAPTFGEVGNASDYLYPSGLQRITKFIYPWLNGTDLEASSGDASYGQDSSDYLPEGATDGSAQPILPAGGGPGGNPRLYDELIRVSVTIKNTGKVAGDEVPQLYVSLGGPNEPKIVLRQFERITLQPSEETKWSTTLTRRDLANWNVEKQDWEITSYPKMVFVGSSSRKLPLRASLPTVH
Experiment: BG kinetics, cellobiose hydrolysis assay (HPLC) with glucose as competitive inhibitor, yEdQ745-BG
Format: biochemical
Text: Accordingly, in some embodiments, the unmodified form of the beta-glucosidase is a wild-type or a naturally occurring beta-glucosidase, such as, for example, a fungal beta-glucosidase. The full nucleic acid and amino acid sequence for numerous fungal beta-glucosidases are available. The amino acid sequence of A. niger beta-glucosidase is provided as SEQ ID NO:2. Thus, in some embodiments, the unmodified beta-glucosidase is from an Aspergillus species. In some embodiments, the unmodified beta-glucosidase is from a Trichoderma species.
The beta-glucosidase (BG) gene from Aspergillus niger (Accession #CAB75696.1) was integrated into the TR3 yeast background at the T4U3 genomic site.
The BG-expressing strains were subsequently used in corn mash and corn stover simultaneous saccharification and fermentation (SSF) studies using flask scale and pilot plant fermentations. A 12-gallon corn stover fermentation was performed at 40° C. in which the beta-glucosidase secreting yeast strain was co-inoculated with three other engineered yeast strains individually expressing endoglucanase II, CBH1, and CBHII. Surviving TR3 Saccharomyces cerevisiae yeast strains individually expressing BG, EGII, CBH1 or CBH2 were recovered by plating onto solid medium. A clonal population of BG-secreting yeast was isolated and the BG gene integration confirmed. […]

Question: With `OC[C@H]1OC(O)[C@H](O)[C@@H](O)[C@@H]1O` (some centres unmarked) [glucose] as the molecule, how does the Ki read?
Answer: 1.56 ± 0.29 mM

Question: What about the Km/Ki (inhibitor influence, Km for cellobiose / Ki for glucose, pH 4.8, 50° C.) of the same molecule?
Answer: 0.93
